Assays:
[1] = system: Liver microsome; test: Drug metabolism in human liver microsomes assessed as N-carbamoyl glucuronide formation; assay type: ADME
[2] = system: Liver microsome; test: Drug metabolism in human liver microsomes assessed as N-carbamoyl glucuronide formation per mg protein; assay type: ADME
[3] = system: Liver microsome; test: Drug metabolism in human liver microsomes assessed as intrinsic clearance for N-carbamoyl glucuronide formation per mg protein; assay type: ADME
[4] = target: T1, UDP-glucuronosyltransferase 1A9 (Homo sapiens, UniProt O60656); test: Activity of human recombinant UGT1A9 expressed in insect cells assessed as intrinsic clearance for enzyme-mediated N-carbamoyl glucuronide formation per mg protein; assay type: ADME
T1 sequence (O60656 whole entry): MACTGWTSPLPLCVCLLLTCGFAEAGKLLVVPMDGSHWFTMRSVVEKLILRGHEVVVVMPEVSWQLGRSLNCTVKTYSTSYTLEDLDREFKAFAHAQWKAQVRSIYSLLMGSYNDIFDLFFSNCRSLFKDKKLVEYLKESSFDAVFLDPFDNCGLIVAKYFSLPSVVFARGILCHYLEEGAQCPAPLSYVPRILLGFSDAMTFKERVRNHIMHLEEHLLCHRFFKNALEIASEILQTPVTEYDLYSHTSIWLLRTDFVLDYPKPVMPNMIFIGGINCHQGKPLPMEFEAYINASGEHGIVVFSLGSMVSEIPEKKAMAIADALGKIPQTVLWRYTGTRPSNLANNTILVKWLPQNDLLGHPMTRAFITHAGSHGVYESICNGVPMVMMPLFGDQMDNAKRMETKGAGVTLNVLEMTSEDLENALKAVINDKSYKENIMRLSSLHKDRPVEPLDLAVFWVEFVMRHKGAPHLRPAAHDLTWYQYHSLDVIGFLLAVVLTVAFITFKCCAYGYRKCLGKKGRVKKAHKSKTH

[5] = target: T2, UDP-glucuronosyltransferase 2B7 (Homo sapiens, UniProt P16662); test: Activity of human recombinant UGT2B7 expressed in insect cells assessed as intrinsic clearance for enzyme-mediated N-carbamoyl glucuronide formation per mg protein; assay type: ADME
T2 sequence (P16662 whole entry): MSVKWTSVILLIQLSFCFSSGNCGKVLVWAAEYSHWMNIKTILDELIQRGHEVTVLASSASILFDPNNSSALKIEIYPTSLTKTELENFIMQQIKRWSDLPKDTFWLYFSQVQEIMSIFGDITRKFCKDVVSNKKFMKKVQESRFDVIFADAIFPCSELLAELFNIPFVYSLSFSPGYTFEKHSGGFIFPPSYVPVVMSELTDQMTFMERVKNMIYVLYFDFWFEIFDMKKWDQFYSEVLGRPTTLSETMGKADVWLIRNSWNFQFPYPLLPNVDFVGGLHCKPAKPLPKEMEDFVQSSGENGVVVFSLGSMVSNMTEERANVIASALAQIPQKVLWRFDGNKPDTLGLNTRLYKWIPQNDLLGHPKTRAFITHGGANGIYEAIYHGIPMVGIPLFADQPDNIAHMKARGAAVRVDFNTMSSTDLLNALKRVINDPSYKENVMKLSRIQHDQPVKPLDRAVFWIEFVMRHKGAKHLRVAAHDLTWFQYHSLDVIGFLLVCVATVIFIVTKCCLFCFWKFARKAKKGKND

[6] = target: T3, UDP-glucuronosyltransferase 2B15 (Homo sapiens, UniProt P54855); test: Activity of human recombinant UGT2B15 expressed in insect cells assessed as intrinsic clearance for enzyme-mediated N-carbamoyl glucuronide formation per mg protein; assay type: ADME
T3 sequence (P54855 whole entry): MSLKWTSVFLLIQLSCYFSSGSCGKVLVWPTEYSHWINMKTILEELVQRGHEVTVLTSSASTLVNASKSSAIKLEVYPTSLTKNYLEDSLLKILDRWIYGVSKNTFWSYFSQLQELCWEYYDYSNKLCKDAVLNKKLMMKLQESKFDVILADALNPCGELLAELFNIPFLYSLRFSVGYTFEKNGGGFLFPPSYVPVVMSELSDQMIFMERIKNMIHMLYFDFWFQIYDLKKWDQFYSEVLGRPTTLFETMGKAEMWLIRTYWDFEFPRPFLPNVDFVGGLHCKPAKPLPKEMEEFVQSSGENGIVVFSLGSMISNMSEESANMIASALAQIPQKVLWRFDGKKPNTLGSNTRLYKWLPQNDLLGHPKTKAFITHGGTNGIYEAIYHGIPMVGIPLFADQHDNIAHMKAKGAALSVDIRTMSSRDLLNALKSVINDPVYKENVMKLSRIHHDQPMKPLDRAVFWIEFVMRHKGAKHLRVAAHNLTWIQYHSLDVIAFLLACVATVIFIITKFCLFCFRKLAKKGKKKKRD

[7] = target: T4, UDP-glucuronosyltransferase 2B17 (Homo sapiens, UniProt O75795); test: Activity of human recombinant UGT2B17 expressed in insect cells assessed as intrinsic clearance for enzyme-mediated N-carbamoyl glucuronide formation per mg protein; assay type: ADME
T4 sequence (O75795 whole entry): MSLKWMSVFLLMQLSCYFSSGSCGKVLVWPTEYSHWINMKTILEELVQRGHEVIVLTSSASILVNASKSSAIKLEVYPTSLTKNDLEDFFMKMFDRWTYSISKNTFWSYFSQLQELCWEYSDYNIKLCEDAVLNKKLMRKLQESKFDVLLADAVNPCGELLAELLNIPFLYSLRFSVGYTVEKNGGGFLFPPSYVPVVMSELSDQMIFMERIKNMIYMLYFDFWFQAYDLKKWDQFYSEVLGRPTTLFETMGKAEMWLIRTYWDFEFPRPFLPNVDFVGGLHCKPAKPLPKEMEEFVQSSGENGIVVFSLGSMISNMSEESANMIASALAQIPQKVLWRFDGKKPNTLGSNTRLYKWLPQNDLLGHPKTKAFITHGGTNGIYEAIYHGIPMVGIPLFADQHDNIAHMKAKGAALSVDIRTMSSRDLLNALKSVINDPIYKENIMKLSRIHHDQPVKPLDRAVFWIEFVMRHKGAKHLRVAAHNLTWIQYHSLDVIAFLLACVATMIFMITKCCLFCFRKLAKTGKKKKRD

[8] = system: Liver; test: Drug metabolism in human liver assessed as N-carbamoyl glucuronide formation per mg protein at 100 uM; assay type: ADME, tissue-based
[9] = Drug metabolism in human kidney assessed as N-carbamoyl glucuronide formation per mg protein at 100 uM; assay type: ADME, tissue-based
[10] = Drug metabolism in human intestine assessed as N-carbamoyl glucuronide formation per mg protein at 100 uM; assay type: ADME, tissue-based
[11] = Drug metabolism in smoking human lung assessed as N-carbamoyl glucuronide formation per mg protein at 100 uM; assay type: ADME, tissue-based
[12] = Drug metabolism in non-smoking human lung assessed as N-carbamoyl glucuronide formation per mg protein at 100 uM; assay type: ADME, tissue-based
[13] = target: T5, UDP-glucuronosyltransferase 1A6 (Homo sapiens, UniProt P19224); test: Activity of human recombinant UGT1A6 expressed in insect cells assessed as intrinsic clearance for enzyme-mediated N-carbamoyl glucuronide formation; assay type: ADME
T5 sequence (P19224 whole entry): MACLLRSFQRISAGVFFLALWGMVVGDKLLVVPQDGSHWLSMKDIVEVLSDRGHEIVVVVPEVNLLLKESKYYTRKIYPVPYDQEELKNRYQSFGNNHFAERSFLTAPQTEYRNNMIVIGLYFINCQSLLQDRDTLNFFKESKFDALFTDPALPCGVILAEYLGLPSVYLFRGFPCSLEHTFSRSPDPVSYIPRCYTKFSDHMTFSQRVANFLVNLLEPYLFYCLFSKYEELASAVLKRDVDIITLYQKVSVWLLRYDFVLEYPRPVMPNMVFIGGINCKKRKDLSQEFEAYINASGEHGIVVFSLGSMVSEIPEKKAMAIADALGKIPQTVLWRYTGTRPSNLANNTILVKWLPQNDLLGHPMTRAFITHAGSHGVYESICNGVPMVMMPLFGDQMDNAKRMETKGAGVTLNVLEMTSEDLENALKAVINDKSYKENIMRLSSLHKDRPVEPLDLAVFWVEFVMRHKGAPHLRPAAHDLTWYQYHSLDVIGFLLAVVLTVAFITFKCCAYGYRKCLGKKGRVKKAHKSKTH

[14] = target: T1, UDP-glucuronosyltransferase 1A9; test: Activity of human recombinant UGT1A9 expressed in insect cells assessed as intrinsic clearance for enzyme-mediated N-carbamoyl glucuronide formation; assay type: ADME
[15] = target: T2, UDP-glucuronosyltransferase 2B7; test: Activity of human recombinant UGT2B7 expressed in insect cells assessed as intrinsic clearance for enzyme-mediated N-carbamoyl glucuronide formation; assay type: ADME
[16] = target: T3, UDP-glucuronosyltransferase 2B15; test: Activity of human recombinant UGT2B15 expressed in insect cells assessed as intrinsic clearance for enzyme-mediated N-carbamoyl glucuronide formation; assay type: ADME
[17] = target: T4, UDP-glucuronosyltransferase 2B17; test: Activity of human recombinant UGT2B17 expressed in insect cells assessed as intrinsic clearance for enzyme-mediated N-carbamoyl glucuronide formation; assay type: ADME
[18] = system: Liver microsome; test: Drug metabolism in human liver microsomes assessed as 100 uM eugenol-mediated inhibition of N-carbamoyl glucuronide formation at 1 uM; assay type: ADME
[19] = system: Liver microsome; test: Drug metabolism in human liver microsomes assessed as 25 uM bisphenol-mediated inhibition of N-carbamoyl glucuronide formation at 100 uM; assay type: ADME
[20] = system: Liver microsome; test: Drug metabolism in human liver microsomes assessed as 100 uM eugenol-mediated inhibition of N-carbamoyl glucuronide formation at 100 uM; assay type: ADME
[21] = system: Liver microsome; test: Drug metabolism in human liver microsomes assessed as N-carbamoyl glucuronide formation at 100 uM in presence of 5 uM mefenamic acid; assay type: ADME
[22] = system: Liver microsome; test: Drug metabolism in human liver microsomes assessed as N-carbamoyl glucuronide formation at 100 uM in presence of 5 uM bisphenol; assay type: ADME
[23] = system: Liver microsome; test: Drug metabolism in human liver microsomes assessed as N-carbamoyl glucuronide formation at 100 uM in presence of 20 uM eugenol; assay type: ADME

C[C@H]1CNCCc2ccc(Cl)cc21.Cl.O
Km [1]: 128 µM | Vmax [2]: 2379.2 pmol/min | CLH [3]: 18.57 µL/min/g | CL [4]: 0.199 µL/min/g | CL [5]: 1.987 µL/min/g | CL [6]: 4.601 µL/min/g | CL [7]: 0.611 µL/min/g | Drug metabolism [8]: 1028 pmol/min | Drug metabolism [9]: 185.9 pmol/min | Drug metabolism [10]: 133.1 pmol/min | Drug metabolism [11]: 1.116 pmol/min | Drug metabolism [12]: 0.493 pmol/min | Drug metabolism [13]: metabolite_detected | Drug metabolism [14]: metabolite_detected | Drug metabolism [15]: metabolite_detected | Drug metabolism [16]: metabolite_detected | Drug metabolism [17]: metabolite_detected | inhibition (INH) [18]: 18% | inhibition (INH) [19]: 30% | inhibition (INH) [20]: 11% | Drug metabolism [21]: metabolite_detected | Drug metabolism [22]: metabolite_detected | Drug metabolism [23]: metabolite_detected

Source: ChEMBL document CHEMBL3525961, “Identification of human UDP-glucuronosyltransferases involved in N-carbamoyl glucuronidation of lorcaserin” (Drug Metab Dispos, 2012)
